Patent US4948807A, “Phenyl carbamates” (priority 1985, dated 1990)
Read-outs that look alike come from different tables or passages of the source.

How the values were obtained:
[1] = test system: brain acetylcholinesterase; conditions: for Relative potency to physostigmine after oral administration / % cholinesterase inhibition 3 hours after s.c. administration / Relative potency to physostigmine after subcut. (s.c.) administration: mouse brain; for Relative potency to physostigmine after oral administration / Relative potency to physostigmine after subcut. (s.c.) administration: physostigmine = 100; for relative in vivo activity compared to physostigmine versus in vitro data: comparison of Table 1 with Table 2
Description: The effect of each compound on brain acetylcholinesterase in vivo was measured, after subcutaneous or oral administration to mice. Animals were sacrificed, at different times ranging from 0.25-8 hours after drug administration. The brain was rapidly removed, and the enzyme acetylcholinesterase extracted and solubilized with 0.1% Triton, and its ability to hydrolyse acetylthiocholine assessed as described above (in vitro experiments), in comparison with the enzyme removed from mice injected with normal saline.

in vivo = conditions: for absorption from the gastro-intestinal tract compared with physostigmine: from oral versus s.c. LD50; for protection by atropine against lethality: atropine pretreatment; for selectivity ratio / LD50 at 3 h: mouse, in vivo
Description: Mice were given one of at least three different doses of each compound, orally or subcutaneously, a minimum of 10 mice allotted to each dose. The number of animals which died at each dose within 3 hours was determined.
This experiment was repeated after the animals had been pretreated with atropine sulphate, which blocks both peripheral and central muscarinic receptors.
What is important is the safety of the drugs and the presence and severity of side effects that may occur at therapeutic doses. A commonly-used measure of drug safety is the therapeutic index--or LD50 /ED50 [formula]
It is assumed that the therapeutic effect of these anticholinesterase agents results from an elevation of brain cholinergic activity. This in turn, should be related to the degree of inhibition of acetylcholinesterase. For the purpose of the computation of the denominator of the therapeutic ratio, there is used the dose of drug that inhibits the activity of acetylcholinesterase by 50%. […] The numerator is the dose found to kill 50% of the animals within […] of a subcutaneous injection.

acetylcholinesterase = target: T1, acetylcholinesterase (Mus musculus, UniProt P21836); test: biochemical; assay type: biochemical
T1 construct: A solubilized preparation of acetylcholinesterase was prepared from mouse whole brain (minus cerebellum); from tissue; host or cells: mouse whole brain (minus cerebellum), membrane pellet solubilized with 1% Triton
T1 sequence (P21836 32-614): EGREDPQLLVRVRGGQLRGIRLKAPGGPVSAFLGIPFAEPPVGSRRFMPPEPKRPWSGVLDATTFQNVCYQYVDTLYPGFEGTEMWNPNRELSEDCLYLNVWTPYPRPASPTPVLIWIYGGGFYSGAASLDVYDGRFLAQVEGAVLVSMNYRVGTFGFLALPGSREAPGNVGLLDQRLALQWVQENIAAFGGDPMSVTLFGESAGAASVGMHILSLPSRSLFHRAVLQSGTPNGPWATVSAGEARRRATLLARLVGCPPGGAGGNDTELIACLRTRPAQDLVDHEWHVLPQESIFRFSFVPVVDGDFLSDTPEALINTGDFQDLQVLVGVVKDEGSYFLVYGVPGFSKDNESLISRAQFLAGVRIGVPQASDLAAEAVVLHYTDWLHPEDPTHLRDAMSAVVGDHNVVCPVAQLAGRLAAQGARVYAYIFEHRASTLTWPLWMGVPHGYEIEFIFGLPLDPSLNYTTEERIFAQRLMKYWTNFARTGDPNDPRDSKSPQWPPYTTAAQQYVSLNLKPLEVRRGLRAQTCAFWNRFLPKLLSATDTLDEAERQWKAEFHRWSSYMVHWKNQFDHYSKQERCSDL
Description: A solubilized preparation of acetylcholinesterase was prepared from mouse whole brain (minus cerebellum). The brain was homogenized with (100 mg/ml) phosphate buffer; pH 8.0, centrifuged, the supernatant discarded, and the pellet mixed with a similar volume as above of buffer pH 8.0 plus 1% Triton; mixed, centrifuged and the supernatant which contained most of the solubilized enzyme, was used for the subsequent determinations of anticholinesterase activity.
The activity of the enzyme (rate of hydrolysis of substrate, acetylthiocholine) was measured using at least 4 different concentrations of substrate, and at least 3 different concentrations of each inhibitor. The enzyme was incubated with inhibitor for periods ranging for 2-180 mins. at 37° C., substrate was then added, and its rate of hydrolysis measured by the spectrophotometric method of Ellman et al. (1961).

[2] = test system: respiratory depressant effects of morphine; assay type: in vivo; conditions: rabbits, depending on drug and dose
Description: Different doses of the carbamate compounds were injected intravenously with morphine in rabbits Respiration rate, arterial blood gas tensions and pH were monitored continuously before and after drug administration for 4-5 hours. In another series of experiments the effect of the anticholinesterase drugs was assessed on the analgesic effect of opiates in rabbits after application of a nociceptive stimulus, i.e. electrical stimulation of the sciatic nerve.

[3] = parenteral administration, in words
[4] = Degree of protection afforded by pretreatment with atropine, ratio of LD50 after pretreatment with atropine sulphate 5 mg/kg to LD50 of drug alone
[5] = Ratio whose head is drawing 10 (Table 3; oral LD50 compared with s.c. LD50), mice, oral versus s.c.
[6] = sc, Therapeutic ratio LD50/ED50 s.c., mice, ED50 = dose inhibiting brain acetylcholinesterase by 50%
[7] = incubation of enzyme with inhibitor, 37° C.

SMILES	duration of significant brain enzyme inhibition (>30%) ([1]; at ED50 dose)	Relative potency to physostigmine after oral administration [1]	% cholinesterase inhibition 3 hours after s.c. administration [1] [%]	Relative potency to physostigmine after subcut. (s.c.) administration [1]	duration of brain acetylcholinesterase inhibition compared with physostigmine or miotine [1, 3]	absorption from the gastro-intestinal tract compared with physostigmine (in vivo)	protection by atropine against lethality (in vivo; mice, in words)	selectivity ratio (in vivo; [4])	selectivity ratio (in vivo; [5])	LD50 at 3 h (in vivo; sc) [µmol/kg]	selectivity ratio (in vivo; [6])	IC50 (acetylcholinesterase) [nM]	Time of peak activity (acetylcholinesterase; [7]) [min]	relative in vivo activity compared to physostigmine versus in vitro data [1]	duration of significant antagonism of the respiratory depressant effects of morphine [2] [h]	further results
CCCN(C)C(=O)Oc1cccc(C(C)N(C)C)c1 (stereo not drawn) [RA4, N-methyl, N-propyl-3[1-(dimethylamino)ethyl]phenyl carbamate]	more than 3 hours	29	25	13	significantly longer duration	more efficiently absorbed from the gastro-intestinal tract than is physostigmine	considerably greater protection	4.9	1.7	72	10	1700	60	–	–	bioavailability after oral administration compared with physostigmine ([1]; in words): better bioavailability after oral administration than physostigmine
CCCCNC(=O)Oc1cccc(C(C)N(C)C)c1 (stereo not drawn) [RA5, N-butyl-3-[1-(dimethylamino)ethyl]phenyl carbamate]	more than 3 hours	29	30	36	significantly longer duration	–	considerably greater protection	5.8	5	19	7.6	76	120	relatively more active in vivo compared to physostigmine than one would expect from the in vitro data	–	–
CCNC(=O)Oc1cccc(C(C)N(C)C)c1 (stereo not drawn) [RA6, N-ethyl-3[1-(dimethylamino)ethyl]phenyl carbamate]	more than 3 hours	19	35	11	significantly longer duration	more efficiently absorbed from the gastro-intestinal tract than is physostigmine	–	2.6	2.1	96	11.9	400	120	relatively more active in vivo compared to physostigmine than one would expect from the in vitro data	3 to 5	brain enzyme inhibition after 7 hours ([1]; at ED50 dose, 7 hours): 36%; bioavailability after oral administration compared with physostigmine ([1]; in words): better bioavailability after oral administration than physostigmine
CCN(C)C(=O)Oc1cccc(C(C)N(C)C)c1 (stereo not drawn) [RA7, N-ethyl, N-methyl-3[1-(dimethylamino)ethyl]phenyl carbamate]	–	–	–	–	–	more efficiently absorbed from the gastro-intestinal tract than is physostigmine	considerably greater protection	–	–	46	–	–	–	–	–	brain enzyme inhibition after 7 hours ([1]; mouse, in vivo): 36%; duration of brain acetylcholinesterase inhibition compared with physostigmine or miotine ([1]; mouse, in vivo): significantly longer duration; duration of significant brain enzyme inhibition (>30%) ([1]; mouse, in vivo): more than 3 hours; Time of peak activity (acetylcholinesterase): 90 min
CCN(CC)C(=O)Oc1cccc(C(C)N(C)C)c1 (stereo not drawn) [RA8, N,N-diethyl-3-[1-(dimethylamino)ethyl]phenyl carbamate]	more than 3 hours	5	32	2	significantly longer duration	–	–	–	–	> 568	> 10	35000	30	relatively more active in vivo compared to physostigmine than one would expect from the in vitro data	–	ED50 after oral administration compared with S.C. injection ([1]; oral versus s.c.): the same as that after S.C. injection
CC(c1cccc(OC(=O)N(C)C)c1)N(C)C (stereo not drawn) [RA10]	–	92	7	81	–	–	considerably greater protection	5	9.7	14	12.7	27	120	relatively more active in vivo compared to physostigmine than one would expect from the in vitro data	3 to 5	therapeutic ratio (safety margin) compared with physostigmine (in vivo; mice, s.c., in words): significantly higher than of physostigmine
CC(c1cccc(OC(=O)N2CCOCC2)c1)N(C)C (stereo not drawn) [RA11]	–	–	–	–	–	–	–	–	–	–	–	> 20000	30	–	–	–
CC(c1cccc(OC(=O)NC2CCCCC2)c1)N(C)C (stereo not drawn) [RA12]	more than 3 hours	17	37	13	–	–	–	3.8	3.6	42	5.8	93	120	–	–	–
CC(C)NC(=O)Oc1cccc(C(C)N(C)C)c1 (stereo not drawn) [RA13]	–	5	–	2	–	more efficiently absorbed from the gastro-intestinal tract than is physostigmine	considerably greater protection	4.5	1.1	65	1.6	12000	120	–	–	–
C=CCNC(=O)Oc1cccc(C(C)N(C)C)c1 (stereo not drawn) [RA14, N-allyl-3-[1-(dimethylamino)ethyl]phenyl carbamate]	more than 3 hours	22	35	15	significantly longer duration	–	considerably greater protection	8	4.4	69	11.5	430	120	relatively more active in vivo compared to physostigmine than one would expect from the in vitro data	3 to 5	selectivity ratio (in vivo; decrease of acute toxicity (lethality) by the antidote atropine, mice, atropine): > 8
